Laboratory results: ChEMBL document CHEMBL1909046, “DrugMatrix in vitro pharmacology data”

Key:
[1] = biological target: 5-hydroxytryptamine receptor 6 (Homo sapiens, UniProt P50406); format: cell membranes, HeLa, Membrane; settings: hela; also: in other assays of this panel Not Active means under 50% inhibition at 10 µM
[2] = DRUGMATRIX: Calcium Channel Type L, Phenylalkylamine radioligand binding (ligand: [3H] (-)-Desmethoxyverapamil (D-888)); format: cell membranes, Rattus norvegicus, Wistar, Brain, Membrane; settings: Not Active = under 50% inhibition at 10 µM
Calcitonin receptor = biological target: T1, Calcitonin receptor (Homo sapiens, UniProt P30988); format: cell membranes, Membrane; settings: t47d; also: in other assays of this panel Not Active means under 50% inhibition at 10 µM
T1 sequence (P30988 whole entry): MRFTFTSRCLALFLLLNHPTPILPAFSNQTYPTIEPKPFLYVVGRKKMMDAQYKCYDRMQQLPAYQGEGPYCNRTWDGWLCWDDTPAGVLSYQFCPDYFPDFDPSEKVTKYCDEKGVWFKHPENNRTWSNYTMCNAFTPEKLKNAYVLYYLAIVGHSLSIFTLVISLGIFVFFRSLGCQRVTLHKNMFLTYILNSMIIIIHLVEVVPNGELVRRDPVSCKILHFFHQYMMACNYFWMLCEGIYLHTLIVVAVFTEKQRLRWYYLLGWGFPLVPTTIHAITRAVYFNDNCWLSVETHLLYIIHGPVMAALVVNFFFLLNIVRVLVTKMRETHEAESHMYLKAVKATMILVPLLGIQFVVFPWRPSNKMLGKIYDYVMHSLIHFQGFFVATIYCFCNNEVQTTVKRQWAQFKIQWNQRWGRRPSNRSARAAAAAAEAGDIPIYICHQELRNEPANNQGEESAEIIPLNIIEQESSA

[3] = biological target: Sigma non-opioid intracellular receptor 1 (Homo sapiens, UniProt Q99720); assay: DRUGMATRIX: Sigma1 radioligand binding (ligand: [3H] Haloperidol); format: cell membranes, Jurkat, Membrane; settings: jurkat; Not Active = under 50% inhibition at 10 µM
Sequence of Sigma non-opioid intracellular receptor 1 (Q99720 whole entry): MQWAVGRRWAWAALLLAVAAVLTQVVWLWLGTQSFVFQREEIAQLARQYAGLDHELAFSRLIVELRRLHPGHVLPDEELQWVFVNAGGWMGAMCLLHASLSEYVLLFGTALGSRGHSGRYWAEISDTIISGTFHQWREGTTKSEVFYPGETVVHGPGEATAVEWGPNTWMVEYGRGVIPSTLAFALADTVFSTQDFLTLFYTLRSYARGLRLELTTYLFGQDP

[4] = biological target: T2, Muscarinic acetylcholine receptor M2 (Homo sapiens, UniProt P08172); format: cell membranes, CHO-K1, Membrane; also: in other assays of this panel Not Active means under 50% inhibition at 10 µM
T2 sequence (P08172 whole entry): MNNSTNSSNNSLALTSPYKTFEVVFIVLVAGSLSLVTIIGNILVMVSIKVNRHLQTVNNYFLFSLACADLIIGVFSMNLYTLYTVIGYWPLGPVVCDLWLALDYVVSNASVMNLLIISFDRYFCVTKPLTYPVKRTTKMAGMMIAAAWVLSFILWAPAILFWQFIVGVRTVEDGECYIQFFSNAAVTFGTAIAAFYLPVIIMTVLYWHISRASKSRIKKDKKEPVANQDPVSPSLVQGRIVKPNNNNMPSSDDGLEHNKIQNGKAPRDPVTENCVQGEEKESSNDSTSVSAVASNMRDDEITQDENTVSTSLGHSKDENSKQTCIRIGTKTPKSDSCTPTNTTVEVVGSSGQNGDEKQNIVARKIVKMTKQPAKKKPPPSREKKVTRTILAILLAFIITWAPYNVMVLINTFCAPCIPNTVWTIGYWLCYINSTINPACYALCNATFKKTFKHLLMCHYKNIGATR

Sequence of 5-hydroxytryptamine receptor 6 (P50406 whole entry): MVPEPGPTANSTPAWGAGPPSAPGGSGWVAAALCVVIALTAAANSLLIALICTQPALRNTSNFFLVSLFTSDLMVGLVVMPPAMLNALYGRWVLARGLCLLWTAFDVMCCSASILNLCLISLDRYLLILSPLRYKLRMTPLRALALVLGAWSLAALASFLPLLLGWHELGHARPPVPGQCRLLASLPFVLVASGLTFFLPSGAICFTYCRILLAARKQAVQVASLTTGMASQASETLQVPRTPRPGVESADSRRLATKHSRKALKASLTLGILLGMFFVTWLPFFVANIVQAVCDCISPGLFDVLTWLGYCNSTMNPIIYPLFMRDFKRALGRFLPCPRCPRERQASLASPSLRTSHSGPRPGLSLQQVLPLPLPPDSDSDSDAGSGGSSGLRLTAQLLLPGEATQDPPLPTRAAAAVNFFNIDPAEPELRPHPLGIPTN

Row | SMILES | IC50 [1] | IC50 [2] | Ki [2] | IC50 (Calcitonin receptor) | IC50 [3] | IC50 ([4]; cho-k1) | IC50 ([4]; read-out: IC50) [nM] | Ki ([4]; read-out: Ki) [nM]
1 | CO[C@@]12[C@H](COC(N)=O)C3=C(C(=O)C(C)=C(N)C3=O)N1C[C@@H]1N[C@@H]12 [MITOMYCIN] | Not Active | Not Active | Not Active | Not Active | Not Active | Not Active | – | –
2 | CC(Cl)(Cl)Cl [TRICHLOROETHANE] | Not Active | Not Active | Not Active | Not Active | Not Active | Not Active | – | –
3 | O=[As][O-].[Na+] [SODIUM ARSENITE] | Not Active | Not Active | Not Active | Not Active | Not Active | Not Active | – | –
4 | Cc1ccc(Cl)c(Nc2ccccc2C(=O)O)c1Cl [MECLOFENAMIC ACID] | Not Active | Not Active | Not Active | Not Active | Not Active | Not Active | – | –
5 | Cc1ccc(S(=O)(=O)NC(=O)NN2CCCCCC2)cc1 [TOLAZAMIDE] | Not Active | Not Active | Not Active | Not Active | Not Active | Not Active | – | –
6 | O=C(O)c1cc(/N=N/c2ccc(S(=O)(=O)Nc3ccccn3)cc2)ccc1O [SULFASALAZINE] | Not Active | Not Active | Not Active | Not Active | Not Active | Not Active | – | –
7 | CC(=O)O[C@]1(C(C)=O)CC[C@H]2[C@@H]3C[C@H](C)C4=CC(=O)CC[C@]4(C)[C@H]3CC[C@@]21C [MEDROXYPROGESTERONE ACETATE] | Not Active | Not Active | Not Active | Not Active | Not Active | Not Active | – | –
8 | CC[C@H](C)C(=O)O[C@H]1CCC=C2C=C[C@H](C)[C@H](CC[C@@H]3C[C@@H](O)CC(=O)O3)[C@H]21 [MEVASTATIN] | Not Active | Not Active | Not Active | Not Active | Not Active | Not Active | – | –
9 | CCN(CC)CCNC(=O)c1cc(Cl)c(N)cc1OC [METOCLOPRAMIDE] | Not Active | Not Active | Not Active | Not Active | Not Active | Not Active | – | –
10 | Cc1nnc(NS(=O)(=O)c2ccc(N)cc2)s1 [SULFAMETHIZOLE] | Not Active | Not Active | Not Active | Not Active | Not Active | Not Active | – | –
11 | CCC(C)(C)C(=O)O[C@H]1C[C@@H](C)C=C2C=C[C@H](C)[C@H](CC[C@@H]3C[C@@H](O)CC(=O)O3)[C@H]21 [SIMVASTATIN] | Not Active | Not Active | Not Active | Not Active | Not Active | Not Active | – | –
12 | CN1C(=O)OC(C)(C)C1=O [TRIMETHADIONE] | Not Active | Not Active | Not Active | Not Active | Not Active | Not Active | – | –
13 | CC[C@H](C)[C@@H](CO[C@@H](Cc1ccccc1)C(=O)N[C@@H](CCS(C)(=O)=O)C(=O)OC(C)C)NC[C@@H](N)CS | Not Active | Not Active | Not Active | Not Active | Not Active | – | 3570 | 1270
14 | OC[C@@H](O)[C@@H](O)[C@H](O)[C@H](O)CO [MANNITOL] | Not Active | Not Active | Not Active | Not Active | Not Active | Not Active | – | –
15 | Cc1cn([C@H]2C=C[C@@H](CO)O2)c(=O)[nH]c1=O [STAVUDINE] | Not Active | Not Active | Not Active | Not Active | Not Active | Not Active | – | –
16 | CC1=C(/C=C/C(C)=C/C=C/C(C)=C/C(=O)O)C(C)(C)CCC1 [TRETINOIN] | Not Active | Not Active | Not Active | Not Active | Not Active | Not Active | – | –
